Earlier results in patent publication US20160243144A1 (Oakdene Holdings LLC, priority 2015, published 2016).

Experiments:
[1] = given orally
[2] = particularly in patients with HE

| SMILES | time by which urinary excretion is essentially complete [1] [h] | urinary excretion [1] [%] | intra-subject variability in Cmax or AUC [2] [% CV] |
| --- | --- | --- | --- |
| OC[C@H]1O[C@@H](O[C@@H]2[C@@H](CO)OC(O)(CO)[C@H]2O)[C@H](O)[C@@H](O)[C@H]1O (mixture of isomers) [lactulose] | ≤ 24 | ≤ 3 | – |
| CO[C@H]1/C=C/O[C@@]2(C)Oc3c(C)c(O)c4c(O)c(c5c(nc6cc(C)ccn65)c4c3C2=O)NC(=O)/C(C)=C\C=C\[C@H](C)[C@H](O)[C@@H](C)[C@@H](O)[C@@H](C)[C@H](OC(C)=O)[C@@H]1C [Rifaximin] | – | – | ≥ 30 |
